Experimental data as given in US20230279004A1, “SOLID FORMS, SALTS, AND PROCESSES OF PREPARATION OF A CDK2 INHIBITOR” (Incyte Corporation, priority 2022, published 2023).
Marks after values point to notes of the source that are not given here.

Columns and labels:
[1] = Solid form change on heating (DSC); type: physicochemical
Procedure: The DSC was obtained from TA Instruments Differential Scanning Calorimetry, Discovery DSC2500 with autosampler. The DSC instrument conditions were as follows: 20-300° C. at 10° C./min; Tzero aluminum sample pan and lid; and nitrogen gas flow at 50 mL/min.
When comparing the DSC of Form I and Form II, it was observed that Form II solids contained two peaks (FIG. 23), with the latter peak onset (≈191.0° C.) and Tmax (193.4° C.) similar to the peak onset and Tmax of Form I (FIG. 2).
The residual solvent could not be removed by conventional drying methods. […] The stoichiometric ratio of the compound of Formula (I) and 1,4-dioxane could be 4:1. The DSC of the solid (FIG. 26) contained a peak onset latter peak onset (≈192.6° C.) and Tmax (194.3° C.), which are similar to the peak onset (191.3° C.) and Tmax (193.3° C.) of Form I (FIG. 2).

[2] = Phase equilibration (XRPD of equilibrated solid); type: physicochemical; conditions: Form I stirred at 25° C. for 48 hours or 50° C. for 24 hours, all solvents tested (Table 9)
Procedure: Phase equilibration studies were conducted to identify a predominant crystal form for phase identification. Based on its solubility in various solvent systems (Table 8), the compound of Formula (I) Form I was equilibrated in a representative groups of solvents at 25±1° C. and 50±1° C. To the solvents, the compound of Formula (I) Form I was added until a cloudy solution was obtained, then approximately 20 mg of the compound of Formula (I) Form I was added to the cloudy solution. The mixture was stirred at 25±1° C. or 50±1° C. for 48 hours or 24 hours, respectively. The solid was filtered, dried in vacuum, and analyzed by XRPD.

[3] = Solubility measurement in various solvents (HPLC); type: physicochemical; conditions: for Solubility (25° C.) / solubility at 48 h: 48 h; for Solubility (50° C.) / solubility at 24 h: 24 h; for solubility at 48 h: 25 °C; for solubility at 48 h / solubility at 24 h: organic solvent or mixture; for solubility at 24 h: 50 °C
Procedure: 5 mL of solvent (see Table 8) was added to the individual vials. The compound of Formula (I) Form I was added to the vials to get a cloudy solution at 25° C. Another approximately 20 mg of the compound of Formula (I) Form I was added to the cloudy solution. The mixture was agitated at 25±1° C. for 48 h, which was controlled by IKA® ETS-D5 temperature controller and IKA® RCT basic safety control. The supernatant was filtered using a syringe filter (0.22 μm). The saturated solution was pipetted into HPLC vials and diluted with MeOH or acetone.
The solubility measurement at 50° C. was performed according to the following procedure. 5 mL of solvent (see Table 8) was added to the individual vials. The compound of Formula (I) Form I was added to the vials to get a cloudy solution at 50° C. Another approximately 20-25 mg of the compound of Formula (I) Form I was added. The mixture was agitated at 50±1° C. for 24 h, which was controlled by IKA® ETS-D5 temperature controller and IKA® RCT basic safety control. The supernatant was filtered quickly using a warmed syringe filter (0.22 μm) at 50±1° C. The saturated solution was pipetted into HPLC vials and diluted with MeOH or acetone.

CDK2/Cyclin E1 = biological target: T1, CDK2/Cyclin E1 (Homo sapiens, UniProt P24941); experiment: CDK2/Cyclin E1 HTRF enzyme activity assay; type: biochemical; conditions: 1 mM ATP
T1 construct: full-length human CDK2; GST (N); purchased Carna 04-165; host or cells: baculovirus expression system
Procedure: CDK2/Cyclin E1 enzyme activity assays utilize full-length human CDK2 co-expressed as N-terminal GST-tagged protein with FLAG-Cyclin E1 in a baculovirus expression system (Carna Product Number 04-165). Assays were conducted in white 384-well polystyrene plates in a final reaction volume of 8 μL. CDK2/Cyclin E1 (0.25 nM) was incubated with the compounds of the Examples (40 nL serially diluted in DMSO) in the presence of ATP (50 μM or 1 mM) and 50 nM ULight™-labeled eIF4E-binding protein 1 (THR37/46) peptide (PerkinElmer) in assay buffer (containing 50 mM HEPES pH 7.5, 1 mM EGTA, 10 mM MgCl2, 2 mM DTT, 0.05 mg/mL BSA, and 0.01% Tween 20) for 60 minutes at room temperature. The reactions were stopped by the addition of EDTA and Europium-labeled anti-phospho-4E-BP1 antibody (PerkinElmer), for a final concentration of 15 mM and 1.5 nM, respectively. HTRF signals were read after 1 hour at room temperature on a PHERAstar FS plate reader (BMG Labtech). Data was analyzed with IDBS XLFit and GraphPad Prism 5.0 software using a three or four parameter dose response curve to determine IC50 for each compound.

[4] = 1,4-dioxane, thermodynamic from solid, 1,4-Dioxane
[5] = 2-methoxyethanol, thermodynamic from solid
[6] = chloroform, thermodynamic from solid
[7] = dimethylformamide, thermodynamic from solid
[8] = iso-butyl acetate, thermodynamic from solid
[9] = methyl ethyl ketone, thermodynamic from solid
[10] = tetrahydrofuran (THF), thermodynamic from solid

Compound: CCOc1c(-c2cn[nH]c2)ccn2nc(N[C@H]3CCN(S(C)(=O)=O)C[C@H]3C)nc12 [Form II, 8-ethoxy-N-((3R,4S)-3-methyl-1-(methylsulfonyl)piperidin-4-yl)-7-(1H-pyrazol-4-yl)-[1,2,4]triazolo[1,5-a]pyridin-2-amine]
- Solid form change during the heating process [1]: changed to Form I

Compound: CCOc1c(-c2cn[nH]c2)ccn2nc(N[C@H]3CCN(S(C)(=O)=O)C[C@H]3C)nc12 [compound of Formula (I) Form I, 8-ethoxy-N-((3R,4S)-3-methyl-1-(methylsulfonyl)piperidin-4-yl)-7-(1H-pyrazol-4-yl)-[1,2,4]triazolo[1,5-a]pyridin-2-amine]
- Crystalline form for phase equilibration [2]: crystalline Form I
- Solubility (25° C.) ([3]; 1,4-Dioxane): >50* mg/mL
- Solubility (50° C.) ([3]; 1,4-Dioxane, 50° C.): >50* mg/mL
- solubility at 48 h [3, 4]: > 50 mg/mL
- solubility at 24 h [3, 4]: > 50 mg/mL
- Solubility (50° C.) ([3]; 2-Me THF/H2O/Heptane (1:1.5%:1), 50° C.): 0.6 mg/mL
- solubility at 24 h ([3]; 2-Me THF/H2O/heptane (1:1.5%:1), thermodynamic from solid, 2-Me THF/H2O/Heptane (1:1.5%:1), 50° C.): < 1 mg/mL
- Solubility (25° C.) ([3]; 2-Methoxyethanol): >50* mg/mL
- Solubility (50° C.) ([3]; 2-Methoxyethanol, 50° C.): >50* mg/mL
- Solubility (50° C.) ([3]; 2-Methyl THF, 50° C.): 18.7 mg/mL
- solubility at 48 h [3, 5]: > 50 mg/mL
- solubility at 24 h [3, 5]: > 50 mg/mL
- solubility at 24 h ([3]; 2-methyl THF, thermodynamic from solid): 15 to 50 mg/mL
- Solubility (50° C.) ([3]; 3% water in EtOH, 50° C.): 20.0 mg/mL
- solubility at 24 h ([3]; 3% water in EtOH, thermodynamic from solid): 15 to 50 mg/mL
- Solubility (25° C.) ([3]; Chloroform): >50* mg/mL
- Solubility (50° C.) ([3]; Chloroform, 50° C.): >50* mg/mL
- Solubility (25° C.) ([3]; DMSO): >50* mg/mL
- solubility at 48 h ([3]; DMSO, thermodynamic from solid): > 50 mg/mL
- Solubility (50° C.) ([3]; DMSO, 50° C.): >50* mg/mL
- solubility at 24 h ([3]; DMSO, thermodynamic from solid): > 50 mg/mL
- Solubility (25° C.) ([3]; Dichloromethane): 18.5 mg/mL
- Solubility (25° C.) ([3]; Dimethylformamide): >50* mg/mL
- Solubility (50° C.) ([3]; Dimethylformamide, 50° C.): >50* mg/mL
- Solubility (50° C.) ([3]; EtOH, 50° C.): 15.7 mg/mL
- solubility at 24 h ([3]; EtOH, thermodynamic from solid): 15 to 50 mg/mL
- Solubility (50° C.) ([3]; Ethyl formate, 50° C.): 15.2 mg/mL
- Solubility (25° C.) ([3]; MeOH): 18.7 mg/mL
- solubility at 48 h ([3]; MeOH, thermodynamic from solid): 15 to 50 mg/mL
- Solubility (25° C.) ([3]; Methyl ethyl ketone): 15.9 mg/mL
- Solubility (50° C.) ([3]; Methyl ethyl ketone, 50° C.): 25.3 mg/mL
- Solubility (25° C.) ([3]; Tetrahydrofuran (THF)): >50* mg/mL
- Solubility (50° C.) ([3]; Tetrahydrofuran (THF), 50° C.): >50* mg/mL
- Solubility (50° C.) ([3]; Toluene, 50° C.): 0.5 mg/mL
- solubility at 48 h [3, 6]: > 50 mg/mL
- solubility at 24 h [3, 6]: > 50 mg/mL
- solubility at 48 h ([3]; dichloromethane, thermodynamic from solid): 15 to 50 mg/mL
- solubility at 48 h [3, 7]: > 50 mg/mL
- solubility at 24 h [3, 7]: > 50 mg/mL
- solubility at 24 h ([3]; ethyl formate, thermodynamic from solid): 15 to 50 mg/mL
- Solubility (25° C.) ([3]; iso-Butyl acetate): 1.1 mg/mL
- Solubility (50° C.) ([3]; iso-Butyl acetate, 50° C.): 1.6 mg/mL
- Solubility (25° C.) ([3]; iso-Propyl acetate): 1.8 mg/mL
- solubility at 48 h [3, 8]: 1 to 15 mg/mL
- solubility at 24 h [3, 8]: 1 to 15 mg/mL
- solubility at 48 h ([3]; iso-propyl acetate, thermodynamic from solid): 1 to 15 mg/mL
- solubility at 48 h [3, 9]: 15 to 50 mg/mL
- solubility at 24 h [3, 9]: 15 to 50 mg/mL
- solubility at 48 h [3, 10]: > 50 mg/mL
- solubility at 24 h [3, 10]: > 50 mg/mL
- solubility at 24 h ([3]; toluene, thermodynamic from solid): < 1 mg/mL

Compound: CCOc1c(-c2cn[nH]c2)ccn2nc(N[C@H]3CCN(S(C)(=O)=O)C[C@H]3C)nc12 [Compound of Formula (I), 8-ethoxy-N-((3R,4S)-3-methyl-1-(methylsulfonyl)piperidin-4-yl)-7-(1H-pyrazol-4-yl)-[1,2,4]triazolo[1,5-a]pyridin-2-amine]
- IC50 (CDK2/Cyclin E1): ≤ 20 nM
